Experimental data from patent publication US11814519B2, “Nitric oxide-releasing 3D-printing compositions and uses thereof” (Virginia Commonwealth University, priority 2020, dated 2023).

What was measured:
[1] = cited from earlier work
[2] = Solubility of the NO donor in solvents and in the silicone ink; assay type: physicochemical; details: silicone ink ingredients
[3] = Optical images of a thin printed layer of donor-loaded silicone rubber soaked in phosphate buffered saline-EDTA (dissolution of donor particles); assay type: physicochemical; details: thin printed layer soaked in PBSE
Experimental: FIG. 4A-C is optical images of a thin layer of S-nitroso-N-acetylpenicillamine-doped silicone rubber before soaking (A) and after 24 h (B) and 48 h (C) of soaking in phosphate buffered saline-EDTA.
FIG. 7A-C is bright-field optical images of a thin layer of S-nitrosoglutathione-loaded silicon rubber before and after soaking in phosphate buffered saline-EDTA.

| solubility in the silicone rubber ink [2] | time required for dissolution of donor particles in the thin printed layer ([3]; optical images) | time for dissolution of donor particles in the thin printed layer ([3]; optical images (FIG. 7)) | Compound | solvents in which the donor is soluble [1] | water solubility relative to SNAP ([1]; water) |
| --- | --- | --- | --- | --- | --- |
| not dissolved in the ink ingredients | 3 days |  | CC(=O)N[C@H](C(=O)O)C(C)(C)SN=O (racemic) [SNAP, S-nitroso-N-acetylpenicillamine] | most soluble in organic solvents such as methanol and tetrahydrofuran |  |
| not soluble |  | dissolved within a day | N[C@@H](CCC(=O)N[C@@H](CSN=O)C(=O)NCC(=O)O)C(=O)O [GSNO, S-nitrosoglutathione] | only appreciably dissolved in water and DMSO | much higher |
